Results on 1 compound are retold here after patent US20030224023A1, “Cosmetic compositions with hydroxy amine salts of malonic acid” (Unilever Home & Personal Care USA, Division of Conopco, Inc., priority 2002, published 2003).

Text: This formula contains 8% Glycolic acid or 0.1053 equivalents, neutralized with 2.4% ammonia hydroxide which is 0.0395 equivalents, resulting in a final formula pH of 3.8. The DMAE formula contains 2.58% malonic acid or 0.0496 equivalents, neutralized with 3.20% DMAE which is 0.0358 equivalents, resulting in a final formula pH of 5.5. […] The clinical involved (49) panelists over a six week period. Panelists were required to apply each product to one half of their face. After application, the panelists were required to answer a series of questions regarding relative effectiveness of the products.
The effect of pH was evaluated with another set of panelists numbering (58) persons utilizing a formulation at pH 6.5. In this set, 2.05% or 0.0394 equivalents of Malonic acid was neutralized with 3.17% or 0.0356 equivalents of DMAE resulting in a formula with a pH of 6.5. In this formula the malonic acid was 90.35% neutralized with the DMAE. In both DMAE formulas the lower pKa malonic acid group was totally neutralized, depending on the amount of malonic acid present in each formula. The second higher pKa acid group was partially neutralized with the remaining DMAE equivalents to bring the pH up to the desired value.

With `CN(C)CCO.O=C(O)CC(=O)O` [DMAE malonate, dimethylaminoethanol (DMAE) malonate], the “improving the general condition of skin” value (compared with ammonium glycolate) is given as “as effective as ammonium glycolate”. Also, the irritation entry (compared with the ammonium glycolate composition) is recorded as “considerably less irritating than the ammonium glycolate composition”.
